The test system of assay [1] is Primary T Cell. The assay is described as follows: T cell enhancement of cytokines: IL2 measurement (HTRF) in expanded CD3+ T cells stimulated with anti-CD3/anti-CD28. It counts as cell-based, human. The conditions noted are these: plate-bound anti-CD3 and soluble anti-CD28, 24 h, read-out: IL-2 Primary T Cell EC50. On the procedure: T cells are isolated from whole blood of healthy donors by immunomagnetic negative selection following manufacture's protocol (StemCell Technologies, human T cell isolation kit). Purity of isolated cells is assessed by flow cytometry and yields 95-98% CD3^+ T cells. For expansion of T cells, 1×10^6 cells/well are plated in serum free cell expansion media (ThermoFisher) containing 30U of recombinant human IL2 (R&D) and stimulated with 25 ul of CD3/CD28 beads (Invitrogen) in 24 well plates for 3-4 days. T cells are then expanded in 175 cm flasks and maintained at a cell density of 1 to 2.5×10^6 cells/ml days by addition of ⅔ of fresh media every 2-3 days. After 10-14 days, cells are frozen in BamBanker freezing media (Thermo) and stored in liquid nitrogen.
For IL2 measurement, expanded CD3+ T cells are dispensed at 100K cells/well (cultured in X-VIVO 10 Serum-free media) and are stimulated with plate-bound anti-CD3 and soluble anti-CD28 in the presence of vehicle or compound of the disclosure at various concentrations for 24 h. As outlined in the manufacturer's protocol (Cisbio), 16 μL of conditioned media is transferred to a white 384-well low volume plate. Following a 24 h incubation with the anti-IL2 antibodies, the homogenous time resolved fluorescence (HTRF) is measured.

Assay [2] deals with T1, MAP4K1 (HPK1) (Homo sapiens, UniProt Q92918).
T1 construct: purchased Invitrogen
In words: Inhibition of MAP4K1 biochemical enzymatic activity (EZReader 2 electrophoretic mobility shift assay). The conditions noted are these: HPK1 (Invitrogen), S6K2tide 1.5 μM, 120 min; ATP 26 μM or 1000 μM (not stated which). The source says:
MAP4K1 (HPK1) and relevant off-target enzymatic activity was monitored using the Perkin Elmer electrophoretic mobility shift technology platform—the EZReader 2. […] Within the linear, steady-state phase of the kinase enzymatic reaction, the mixed pool of phosphorylated (product) and non-phosphorylated (substrate) peptides was passed through the microfluidic system of the PerkinElmer EZ Reader 2, under an applied electric potential difference. The presence of the phosphate group on the product peptide provided a difference in mass and charge between that of the substrate peptide, resulting in a separation of the substrate and product pools in the sample (Perrin et al. 2010). As the product and substrate peptide mixture passes the lasers within the instrument, these pools are detected (λex=488 nm, λem=568 nm) and resolved as separate peaks. The ratio between these peaks reflects the activity of the compound at that concentration, in that well, under those conditions.
Inhibitors were dissolved in 100% DMSO at a stock concentration of 10 mM. A 100×, 10-point, 4-fold serial dilution of each inhibitor was created in 100% DMSO either manually or on a Hamilton STAR liquid handler, starting at a relevant concentration, usually 1 mM. A volume of 0.130 μL of each concentration was transferred to the relevant wells of a 384-well plate (Greiner 781 201) in diplicate using a TTPLabtech Mosquito nano-litre dispenser. Using a Multidrop Combi, the remaining constituents of the kinase reaction were added to the 130 nL of dosed compound as follows (see table below for final reaction details):
Enzyme activity assays at the ^APPKM for ATP or 1 mM ATP: In each well of a 384-well plate, 0.1-15 nM of untreated enzyme was incubated in a total of 13 μL of buffer (100 mM HEPES pH 7.5, 0.015% Brij 35, 10 mM MgCl2, 1 mM DTT) with 1.5 μM fluorescent peptid and 20-1000 μM ATP, at 25° C., for 60-180 minutes in the presence or absence of a dosed concentration series of compound (1% DMSO final concentration). The kinase reactions were stopped by the addition of 70 μl of Stop buffer (100 mM HEPES pH 7.5, 0.015% Brij 35, 35 mM EDTA and 0.2% of Coating Reagent 3 (Caliper Lifesciences)). The plates were read on a Caliper EZReader 2 as described above.

Where two headings read alike, the source gives them in different places.

The EC50 is the concentration needed to bring the measured effect to its halfway point. A word on the IC50: it is the concentration that inhibits the measured activity by half.

T1 sequence (Q92918 whole entry): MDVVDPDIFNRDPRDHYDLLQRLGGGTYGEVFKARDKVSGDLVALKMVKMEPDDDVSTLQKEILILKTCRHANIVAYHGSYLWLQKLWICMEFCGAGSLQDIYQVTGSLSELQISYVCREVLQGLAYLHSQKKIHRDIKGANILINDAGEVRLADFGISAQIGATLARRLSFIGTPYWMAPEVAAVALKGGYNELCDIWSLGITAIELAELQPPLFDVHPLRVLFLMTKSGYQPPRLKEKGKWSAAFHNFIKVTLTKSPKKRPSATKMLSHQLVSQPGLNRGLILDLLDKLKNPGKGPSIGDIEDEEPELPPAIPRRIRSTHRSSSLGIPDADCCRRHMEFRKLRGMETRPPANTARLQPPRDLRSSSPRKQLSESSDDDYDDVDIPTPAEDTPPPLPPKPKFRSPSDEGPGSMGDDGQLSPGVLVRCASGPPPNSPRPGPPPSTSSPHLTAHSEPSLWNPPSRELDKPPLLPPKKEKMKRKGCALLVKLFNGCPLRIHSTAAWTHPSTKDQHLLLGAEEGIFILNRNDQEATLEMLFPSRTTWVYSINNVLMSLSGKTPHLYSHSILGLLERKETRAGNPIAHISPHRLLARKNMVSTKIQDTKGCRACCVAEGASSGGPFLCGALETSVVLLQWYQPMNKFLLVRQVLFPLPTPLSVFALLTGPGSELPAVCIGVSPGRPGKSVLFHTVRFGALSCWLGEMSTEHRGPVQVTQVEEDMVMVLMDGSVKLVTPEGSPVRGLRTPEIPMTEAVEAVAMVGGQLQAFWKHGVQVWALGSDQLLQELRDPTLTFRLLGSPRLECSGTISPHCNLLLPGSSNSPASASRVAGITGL

In the case of `CC[C@@H](N)c1cnc(OC2CN(C(=O)[C@@H]3C[C@@H]3F)C2)c2cnc(Nc3ccc4c(n3)[C@@H](C)C(C)(C)OC4=O)cc12` (single isomer, unassigned) [Compound 11, (R)-2-((5-((R)-1-aminopropyl)-8-((1-((1S,2S)-2-fluorocyclopropane-1-carbonyl)azetidin-3-yl)oxy)-2,7-naphthyridin-3-yl)amino)-7,7,8-trimethyl-7,8-dihydro-5H-pyrano[4,3-b]pyridin-5-one or (R)-2-((5-((S)-1-aminopropyl)-8-((1-((1S,2S)-2-fluorocyclopropane-1-carbonyl)azetidin-3-yl)oxy)-2,7-naphthyridin-3-yl)amino)-7,7,8-trimethyl-7,8-dihydro-5H-pyrano[4,3-b]pyridin-5-one], the EC50 in assay [1] (Homo sapiens, T-cell, 24 h) worked out at 38.6 nM. Also, in assay [2], the IC50 was 0.63 nM.

`CC[C@@H](N)c1ccc(OC2CN(C(=O)C3CC3)C2)c2cnc(Nc3ccc4c(n3)[C@@H](C)C(C)(C)OC4=O)cc12` (single isomer, unassigned) [Compound 40, (R)-2-((5-((R)-1-Aminopropyl)-8-((1-(cyclopropanecarbonyl)azetidin-3-yl)oxy)isoquinolin-3-yl)amino)-7,7,8-trimethyl-7,8-dihydro-5H-pyrano[4,3-b]pyridin-5-one or (R)-2-((5-((S)-1-aminopropyl)-8-((1-(cyclopropanecarbonyl)azetidin-3-yl)oxy)isoquinolin-3-yl)amino)-7,7,8-trimethyl-7,8-dihydro-5H-pyrano[4,3-b]pyridin-5-one]: the EC50 in assay [1] (Homo sapiens, T-cell, 24 h) is 160 nM. Moreover, the IC50 in assay [2] came to 0.19 nM.

Regarding `C[C@@H]1c2nc(Nc3cc4c(C(C)(C)N)cnc(OC5CC(C)(C(=O)N(C)C)C5)c4cn3)ccc2C(=O)OC1(C)C` (single isomer, unassigned) [Compound 81], in assay [1] (Homo sapiens, T-cell, 24 h), the EC50 worked out at 71.2 nM. In addition, the IC50 in assay [2] was found to be 0.16 nM.

In the case of `CC[C@@H](N)c1ccc(OC2CN(C(=O)[C@@H]3C[C@@H]3F)C2)c2cnc(Nc3ccc4c(n3)[C@@H](C)C(C)(C)OC4=O)cc12` (single isomer, unassigned) [Compound 83, (R)-2-((5-((R)-1-Aminopropyl)-8-((1-((1S,2S)-2-fluorocyclopropane-1-carbonyl)azetidin-3-yl)oxy)isoquinolin-3-yl)amino)-7,7,8-trimethyl-7,8-dihydro-5H-pyrano[4,3-b]pyridin-5-one or (R)-2-((5-((S)-1-aminopropyl)-8-((1-((1S,2S)-2-fluorocyclopropane-1-carbonyl)azetidin-3-yl)oxy)isoquinolin-3-yl)amino)-7,7,8-trimethyl-7,8-dihydro-5H-pyrano[4,3-b]pyridin-5-one], the EC50 in assay [1] turned out to be 23.8 nM. In addition, the IC50 in assay [2] was 0.11 nM.

As to `COCC(C)(N)c1cnc(OC2CN(C(=O)C3CC3F)C2)c2cnc(Nc3ccc4c(n3)C(C)C(C)OC4=O)cc12` (single isomer, unassigned) [Compound 96], the EC50 in assay [1] is 10.3 nM. The IC50 in assay [2] stood at 0.09 nM.

With `COCC(C)(N)c1cnc(OC2CN(C(=O)C3CC3F)C2)c2cnc(Nc3ccc4c(n3)C(C)C(C)OC4=O)cc12` (single isomer, unassigned) [Compound 97], the EC50 in assay [1] was determined as 50.1 nM. The IC50 in assay [2] was determined as 0.36 nM.

On to `CCC[C@@](C)(N)c1ncc(OC2CN(C(C)=O)C2)c2cnc(Nc3ccc4c(n3)CC(C)(C)OC4=O)cc12` (single isomer, unassigned) [Compound 112], for which the EC50 in assay [1] (Homo sapiens, T-cell, 24 h) came out at 10.2 nM. Besides, in assay [2], the IC50 came to 0.24 nM.

Consider `CCCC(C)(N)c1cnc(OC2CN(C(C)=O)C2)c2cnc(Nc3ccc4c(n3)[C@@H](C)[C@H](C)OC4=O)cc12` (single isomer, unassigned) [Compound 113], for which the 50% effective concentration (EC50) in assay [1] (Homo sapiens, T-cell, 24 h) came out at 7.4 nM. In addition, the IC50 in assay [2] came out at 0.11 nM.

Regarding `CCCC(C)(N)c1cnc(OC2CN(C(C)=O)C2)c2cnc(Nc3ccc4c(n3)[C@@H](C)C(C)(C)OC4=O)cc12` (single isomer, unassigned) [Compound 115], in assay [1] (Homo sapiens, T-cell, 24 h), the half-maximal effective concentration (EC50) came to 5.4 nM. Moreover, the IC50 in assay [2] turned out to be 0.1 nM.

As for `CC[C@H](N)c1cnc(O[C@H]2C[C@@H](C(=O)N3CC(OC)C3)C2)c2cnc(Nc3ccc4c(n3)[C@@H](C)C(C)(C)OC4=O)cc12` (single isomer, unassigned) [Compound 127], the EC50 in assay [1] (Homo sapiens, T-cell, 24 h) was determined as 74.2 nM. Moreover, the IC50 in assay [2] is 0.09 nM.

On to `CC[C@@H](N)c1ccc(OC2CN(C(C)=O)C2)c2cnc(Nc3ccc4c(n3)[C@@H](C)C(C)(C)OC4=O)cc12` (stereo in doubt) [Compound 20], for which the EC50 in assay [1] (Homo sapiens, T-cell, 24 h) amounted to 99.3 nM. For the same compound, in assay [2], the IC50 turned out to be 0.26 nM.

Consider `CC[C@@H](N)c1cnc(OC2CN(C(=O)C3CC3)C2)c2cnc(Nc3ccc4c(n3)[C@@H](C)C(C)(C)OC4=O)cc12` (stereo in doubt) [Compound 53], for which the EC50 in assay [1] (Homo sapiens, T-cell, 24 h) came to 57.4 nM. For the same compound, the half-maximal inhibitory concentration (IC50) in assay [2] was 0.54 nM.

Turning to `CC(=O)N1CC(Oc2ncc(C(C)(C)N)c3cc(Nc4ccc5c(n4)[C@@H](C)[C@H](C)OC5=O)ncc23)C1` [Compound 1, (7S,8R)-2-((8-((1-acetylazetidin-3-yl)oxy)-5-(2-aminopropan-2-yl)-2,7-naphthyridin-3-yl)amino)-7,8-dimethyl-7,8-dihydro-5H-pyrano[4,3-b]pyridin-5-one], the EC50 in assay [1] (Homo sapiens, T-cell, 24 h) worked out at 34.7 nM. The IC50 in assay [2] was 0.18 nM.

Turning to `CC(=O)N1C[C@@H](Oc2ncc(C(C)(C)N)c3cc(Nc4ccc5c(n4)[C@@H](C)[C@H](C)OC5=O)ncc23)[C@@H]1C` [Compound 3], in assay [1] (Homo sapiens, T-cell, 24 h), the EC50 came to 33.5 nM. Also, the IC50 in assay [2] was found to be 0.33 nM.

Consider `CC(=O)N1CC(Oc2ncc(C(C)(C)N)c3cc(Nc4ccc5c(n4)[C@@H](C)C(C)(C)OC5=O)ncc23)C1` [Compound 4, (R)-2-((8-((1-Acetylazetidin-3-yl)oxy)-5-(2-aminopropan-2-yl)-2,7-naphthyridin-3-yl)amino)-7,7,8-trimethyl-7,8-dihydro-5H-pyrano[4,3-b]pyridin-5-one], for which the EC50 in assay [1] (Homo sapiens, T-cell, 24 h) was 19.9 nM. For the same compound, in assay [2], the half-inhibitory concentration (IC50) worked out at 0.15 nM.

In the case of `C[C@@H]1OC(=O)c2ccc(Nc3cc4c(C(C)(C)N)cnc(OC5CN(C(=O)C6CC6)C5)c4cn3)nc2[C@H]1C` [Compound 5], the EC50 in assay [1] (Homo sapiens, T-cell, 24 h) was found to be 17.7 nM. Moreover, the half-maximal inhibitory concentration (IC50) in assay [2] was found to be 0.17 nM.

As to `CCC(=O)N1CC(Oc2ncc(C(C)(C)N)c3cc(Nc4ccc5c(n4)[C@@H](C)C(C)(C)OC5=O)ncc23)C1` [Compound 6], the EC50 in assay [1] (Homo sapiens, T-cell, 24 h) came out at 22.5 nM. Also, the IC50 in assay [2] turned out to be 0.2 nM.

Consider `CC(=O)N1C[C@@H](Oc2ncc(C(C)(C)N)c3cc(Nc4ccc5c(n4)[C@@H](C)C(C)(C)OC5=O)ncc23)[C@@H]1C` [Compound 7], for which the EC50 in assay [1] (Homo sapiens, T-cell, 24 h) came out at 22.3 nM. In assay [2], the IC50 was 0.12 nM.

As for `C[C@@H]1c2nc(Nc3cc4c(C(C)(C)N)cnc(OC5CN(C(=O)C6CC6)C5)c4cn3)ccc2C(=O)OC1(C)C` [Compound 8], the EC50 in assay [1] (Homo sapiens, T-cell, 24 h) came to 32.7 nM. Besides, the IC50 in assay [2] amounted to 0.16 nM.

Turning to `C[C@@H]1OC(=O)c2ccc(Nc3cc4c(C(C)(C)N)cnc(OC5CN(C(=O)[C@H]6C[C@H]6F)C5)c4cn3)nc2[C@H]1C` [Compound 9], in assay [1] (Homo sapiens, T-cell, 24 h), the concentration giving a half-maximal response (EC50) is 16.8 nM. The IC50 in assay [2] worked out at 0.16 nM.

Take `C[C@@H]1OC(=O)c2ccc(Nc3cc4c(C(C)(C)N)cnc(OC5CN(C(=O)[C@@H]6C[C@@H]6F)C5)c4cn3)nc2[C@H]1C` [Compound 10]: the EC50 in assay [1] (Homo sapiens, T-cell, 24 h) came out at 8.1 nM. Moreover, the IC50 in assay [2] turned out to be 0.13 nM.

As for `C[C@@H]1c2nc(Nc3cc4c(C(C)(C)N)cnc(OC5CN(C(=O)[C@@H]6C[C@@H]6F)C5)c4cn3)ccc2C(=O)OC1(C)C` [Compound 12], the 50% effective concentration (EC50) in assay [1] (Homo sapiens, T-cell, 24 h) came out at 10.5 nM. The IC50 in assay [2] was found to be 0.16 nM.

The values are drawn from patent publication US20240199648A1, “MAP4K1 INHIBITORS” (Blueprint Medicines Corporation, priority 2021, published 2024).
